Assay results: patent US20040072846A1, “Pharmaceutical formulation containing thienopyrimidines and antithrombotics, calcium antagonists, prostaglandins or prostaglandin derivatives” (priority 2000, published 2004)

Compound: COc1ccc(CNc2nc(CCC(=O)O)nc3sc4c(c23)CCCC4)cc1Cl [Example 2, 3-[4-(3-chloro-4-methoxybenzylamino)-5,6,7,8-tetrahydro-[1]-benzothieno-[2,3-d]-pyrimidin-2-yl]propionic acid]
- melting point: 229 °C
